Source: PubChem BioAssay (NCI)
“And” between values parts separate entries of the source, which are not always exact repeats. Equal values may be shown once.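 Dose response: 5 concentrations. Exposure: 48 h. Format: 96-well plates. Endpoint: linear interpolation; highest concentration if not reached. The concentration for 50% growth inhibition is given as GI50. At the TGI there is no net growth.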

How the values were obtained:
Assay in all cases: DTP human tumour cell line panel, 48 h
PC-3 prostate = system: PC-3 prostate
SF-539 CNS = system: SF-539 CNS
SF-295 CNS = system: SF-295 CNS
SNB-19 CNS = system: SNB-19 CNS
OVCAR-5 ovarian = system: OVCAR-5 ovarian
RPMI-8226 leukemia = system: RPMI-8226 leukemia
786-0 renal = system: 786-0 renal
MDA-MB-435 = system: MDA-MB-435
UACC-62 melanoma = system: UACC-62 melanoma
HL-60(TB) leukemia = system: HL-60(TB) leukemia

Row | Structure (SMILES) | GI50 (PC-3 prostate) | TGI (PC-3 prostate) | GI50 (SF-539 CNS) | TGI (SF-539 CNS) | GI50 (SF-295 CNS) | TGI (SF-295 CNS) | GI50 (SNB-19 CNS) | TGI (SNB-19 CNS) | GI50 (OVCAR-5 ovarian) | TGI (OVCAR-5 ovarian) | GI50 (RPMI-8226 leukemia) | TGI (RPMI-8226 leukemia) | GI50 (786-0 renal) | TGI (786-0 renal) | GI50 (MDA-MB-435) | TGI (MDA-MB-435) | GI50 (UACC-62 melanoma) | TGI (UACC-62 melanoma) | TGI (HL-60(TB) leukemia) | GI50 (HL-60(TB) leukemia)
1 | O=C(CCN1CCCC1)Nc1ccc2c(Nc3ccc(Br)cc3)c3ccccc3nc2c1 | 1400 nM | 3.04 µM | 1550 nM | 2.95 µM | 1590 nM | 3.02 µM | 1440 nM | 2.79 µM | 1630 nM | 3.03 µM | 1730 nM | 6.07 µM | 1500 nM | 3.02 µM | 1680 nM | 3.1 µM | 1640 nM | 3.12 µM | – | –
2 | CC(C)c1ccc(C(c2c(O)c3ccccc3oc2=O)c2c(O)c3ccccc3oc2=O)cc1 | – | 37.9 µM | – | 39.4 µM | – | 52 µM | – | 49.9 µM | – | 37.4 µM | – | 45.9 µM | – | 40.9 µM | – | 39.3 µM | – | 31.2 µM | 26.3 µM | –
3 | COc1ccc(C(=O)/C=C/c2c(C(F)(F)F)nc3ccccn23)cc1OC | 2730 nM | > 100 µM | 2140 nM | – | 3150 nM | 42.5 µM | 3770 nM | > 22 µM | – | – | 362 nM | 1.67 µM | 2260 nM | > 100 µM | 1150 nM | > 100 µM | – | > 100 µM | 2.64 µM | 758 nM
4 | COc1ccc(C2CC(c3ccc4ccccc4c3)=NN2c2nc(O)c(C3=c4cc(Cl)ccc4=NC3=O)s2)cc1 (stereo unspecified) | 28.3 nM and < 5 nM | – | 19.5 nM and < 5 nM | 0.0402 µM and < 0.005 µM | 19.7 nM and < 5 nM | 0.0491 µM and < 0.005 µM | 34 nM and < 5 nM | 1.18 µM | 26.3 nM and < 5 nM | – | 64.1 nM | – | 23.1 nM and < 5 nM | – | 21.5 nM and < 5 nM | 0.0483 µM and < 0.005 µM | 29.6 nM and < 5 nM | – | – | 171 nM
5 | CN(C)c1ccc(/C=N/n2c(CCCCc3n[nH]c(=S)n3/N=C/c3ccc(N(C)C)cc3)n[nH]c2=S)cc1 | > 100000 nM | > 100 µM | > 100000 nM | > 100 µM | > 100000 nM | > 100 µM | > 100000 nM | > 100 µM | > 100000 nM | > 100 µM | > 100000 nM | > 100 µM | 89300 nM | > 100 µM | > 100000 nM | > 100 µM | > 100000 nM | > 100 µM | > 100 µM | > 100000 nM
6 | CCOP(=O)(OCC)C(NC(c1ccccc1)c1ccccc1)c1ccsc1 (stereo unspecified) | 10900 nM | 23.9 µM | 24000 nM | 43.1 µM | 18400 nM | 36.9 µM | – | – | 16900 nM | 32.6 µM | 7760 nM | 22 µM | 17200 nM | 31.4 µM | 21200 nM | 39.7 µM | 12800 nM | 25.5 µM | 56.9 µM | 23000 nM
7 | CC(C)c1ccc(C(O)(C(=O)O)c2ccc(C(C)C)cc2)cc1 | – | 51.1 µM | – | > 100 µM | – | 95.5 µM | – | > 100 µM | – | > 100 µM | – | 72 µM | – | > 100 µM | – | > 100 µM | – | > 100 µM | 99.4 µM | –
